The text below walks through data of doi:10.1101/2025.07.05.663305v1, “Structure of Photosystem I with SOD reveals coupling between energy conversion and oxidative stress protection” (biorxiv, 2025).

The assay deals with T1, FCPb (Chromera velia, UniProt A0A0G4ID45).
T1 construct: gene Cvel_13255; native PSI-SOD-FCPI supercomplex purified from cells; contacts PsaD, PsaL, PsaA2 and SOD1
T1 sequence (A0A0G4ID45 1-293): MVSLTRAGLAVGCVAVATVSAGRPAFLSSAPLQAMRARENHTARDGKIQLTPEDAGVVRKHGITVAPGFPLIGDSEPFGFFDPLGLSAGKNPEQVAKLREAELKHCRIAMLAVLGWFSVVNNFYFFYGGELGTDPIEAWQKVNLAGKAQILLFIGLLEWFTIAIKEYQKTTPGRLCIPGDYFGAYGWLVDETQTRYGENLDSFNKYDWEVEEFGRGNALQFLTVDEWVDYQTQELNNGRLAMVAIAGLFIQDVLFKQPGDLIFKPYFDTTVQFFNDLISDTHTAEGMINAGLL
Kind of assay: cryo-EM structure. Type of assay: binding. To be noted: four sites 301, 302, 303, 305.

For the compound `CC(/C=C/C=C(C)/C=C/[C@@]12O[C@]1(C)C[C@@H](O)CC2(C)C)=C\C=C\C=C(C)\C=C\C=C(C)\C=C\[C@@]12O[C@]1(C)C[C@@H](O)CC2(C)C` [violaxanthin], the cryo-EM structure result is “FCPb binds ten Chls a and four violaxanthins”.
